{"source": "patent US9296687B2", "about": "“Modulators of HSP70/DnaK function and methods of use thereof” (The Trustees of the University of Pennsylvania, priority 2008, dated 2016)", "key": {"DnaK": {"target": "DnaK (Escherichia coli, UniProt P0A6Y8)", "sequence (P0A6Y8 whole entry)": "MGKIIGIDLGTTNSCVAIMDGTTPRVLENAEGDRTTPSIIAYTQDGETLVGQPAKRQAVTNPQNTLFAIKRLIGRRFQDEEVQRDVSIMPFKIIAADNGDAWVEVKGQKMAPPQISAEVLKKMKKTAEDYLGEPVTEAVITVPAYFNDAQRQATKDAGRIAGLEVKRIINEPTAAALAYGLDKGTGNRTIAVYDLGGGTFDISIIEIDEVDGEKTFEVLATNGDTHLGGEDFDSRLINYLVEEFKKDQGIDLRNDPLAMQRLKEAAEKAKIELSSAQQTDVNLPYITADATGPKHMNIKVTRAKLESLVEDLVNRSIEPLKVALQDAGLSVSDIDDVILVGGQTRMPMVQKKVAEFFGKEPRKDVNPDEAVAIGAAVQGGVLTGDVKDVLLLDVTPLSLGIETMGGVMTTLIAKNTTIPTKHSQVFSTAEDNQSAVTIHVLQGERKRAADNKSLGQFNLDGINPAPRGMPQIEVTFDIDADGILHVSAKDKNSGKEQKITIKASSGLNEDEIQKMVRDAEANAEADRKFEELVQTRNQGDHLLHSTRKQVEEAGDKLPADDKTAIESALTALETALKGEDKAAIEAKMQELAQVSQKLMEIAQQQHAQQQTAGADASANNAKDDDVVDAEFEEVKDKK", "assay": "Identification of B-PES interacting protein in bacteria by LC-tandem MS", "conditions": "E. coli DH5α, 50 μM B-PES, 3 h"}, "[1]": {"system": "H1299 and FaDu; 6113 and WI38", "assay": "MTT assay, tumorogenic versus normal fibroblast cell lines", "type": "cell-based, human", "conditions": "various concentrations, 48 hours", "description": "H1299 cells were seeded on […] and treated with 10 μM PES or 10 μM PES-Cl. DMSO treated cells were used as a control and the proliferation of the H1299 cells was observed over 24 and 48 hours of treatment. The cells were imaged by light microscopy with 20× magnification (FIG. 28). Non-tumorogenic and tumorogenic cells were then treated with PES-Cl to observe its toxicity and effect on proliferation. Two tumorogenic cell lines (H1299 and FaDu) and two normal fibroblast cell lines (6113 and WI38) were seeded on a 96-well plate. The cells were treated with various concentrations of PES and PES-Cl. Forty-eight hours post-treatment MTT assays (Cayman Chemical Company) were performed (FIG. 29)."}, "FADU cells": {"system": "FADU cells", "assay": "Sulforhodamine B colorimetric assay, PES plus cisplatin", "type": "cell-based, human", "conditions": "0-100 μM, 1:1 ratio, 72 h", "description": "FIG. 20. PES and cisplatin act synergistically to kill cancer cells. […] Experiments were done in triplicate per condition.\nCells (2×10^4) were plated into 96 well plates in 200 μl media and allowed to attach overnight. Cells were then treated with the indicated doses of PES, cisplatin or PES+Cisplatin. After 72 hr incubation period, cells were washed in PBS and 100 μl of ice cold 10% TCA was added for 1 hr at 4° C. Plates were washed four times with slow-running tap water and air-dried at room temperature. 100 μl of 0.057% SRB solution was added to the cells and incubated for 30 min at room temperature. Fixed cells were quickly rinsed four times with 1% acetic acid to remove unbound dye. The protein-bound dye was solubilized using 200 μl of 10 mM Tris base solution (pH 10.5) per well, and the wells were spectrophotometrically quantified at an absorbance of 540 nm. This methodology is identical to that in Shekan et al, JNCI 82:1107 (1990)."}, "E. coli": {"system": "E. coli", "assay": "Growth curves and morphology of E. coli at 35° C. or 43° C.", "type": "cell-based", "description": "FIG. 3. PES and E. coli. (A) Identification of DnaK as Biotin-PES (B-PES) interacting protein in bacteria by liquid chromatography-tandem mass spectrometry, as described herein below. (B) The amino acid sequence of DnaK (SEQ ID NO: 7); the residues detected by mass spectrometry are shown in bold and underlined. (C) Growth curves of E. coli treated with different concentrations of PES either at 35° C. or 43° C. […] (D) Bacterial morphology (phase contrast microscopy) following treatment of the cells with PES at the indicated temperatures. Note evidence of filamentation and aggregation at higher concentrations of PES, especially at 43° C."}, "[2]": {"system": "normal human lung fibroblasts (IMR90)", "assay": "MTT cell viability assay", "type": "cell-based", "conditions": "24 h, except at the highest concentrations used", "description": "(§1) Cell viability assays were performed using an MTT (methyl thiazolyl tetrazolium) colorimetric assay (Roche Applied Science, Cat. No. 11 465 007 001), with the following modifications. Briefly, cells (1×10^4) were plated into 24 well-assay plates in 0.5 ml media and allowed to attach overnight. […] After the incubation period, 50 μl of the water-soluble MTT labeling reagent [3-[4,5-dimethylthiazol-2-yl]-2,5-diphenyl tetrazolium bromid] were added to the cells, and the cells were incubated for 4 h in a humidified chamber at 37° C. with 5% CO2. The metabolized insoluble formazan crystals were then solubilized using 0.5 ml of the Solubilization solution (10% SDS in 0.01M HCl) per well, and the resulting colored solutions were spectrophotometrically quantified at an absorbance of 570 nm."}, "[3]": {"system": "WI38 human fetal lung fibroblasts", "assay": "MTT cell viability assay", "type": "cell-based", "conditions": "except at the highest concentration tested (20 μM)", "description": "as §1"}, "[4]": {"system": "H1299 human lung carcinoma cells", "assay": "MTT cell viability assay", "type": "cell-based", "description": "as §1"}, "HSP70": {"target": "HSP70 (Homo sapiens, UniProt P0DMV8)", "sequence (P0DMV8 whole entry)": "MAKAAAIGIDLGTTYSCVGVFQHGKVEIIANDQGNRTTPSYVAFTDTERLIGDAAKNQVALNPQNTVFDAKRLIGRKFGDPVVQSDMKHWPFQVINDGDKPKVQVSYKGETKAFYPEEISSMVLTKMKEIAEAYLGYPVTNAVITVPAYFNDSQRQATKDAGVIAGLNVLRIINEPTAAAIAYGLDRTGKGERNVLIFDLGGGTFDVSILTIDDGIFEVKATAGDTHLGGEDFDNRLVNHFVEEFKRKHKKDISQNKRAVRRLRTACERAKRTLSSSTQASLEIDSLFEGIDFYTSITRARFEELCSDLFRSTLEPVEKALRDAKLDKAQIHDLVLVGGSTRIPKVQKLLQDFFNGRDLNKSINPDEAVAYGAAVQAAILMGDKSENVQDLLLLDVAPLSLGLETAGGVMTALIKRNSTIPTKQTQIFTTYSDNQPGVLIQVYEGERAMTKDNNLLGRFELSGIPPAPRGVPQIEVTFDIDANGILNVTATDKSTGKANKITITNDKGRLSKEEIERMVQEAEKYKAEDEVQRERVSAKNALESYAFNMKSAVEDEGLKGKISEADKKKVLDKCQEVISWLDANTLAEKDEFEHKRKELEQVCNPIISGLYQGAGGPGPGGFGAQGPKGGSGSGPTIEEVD", "assay": "Immunoprecipitation-western blot of HSP70 complexes with co-chaperones and substrate proteins", "type": "cell-based", "set-up": "endogenous in cells; host or cells: human tumor cell lines (A875, BX-U2OS, U2OS, H1299, MiaPaCa2, HepG2, SKBR3, 293T)"}, "Eμ-Myc transgenic mice": {"system": "Eμ-Myc transgenic mice", "assay": "Eμ-Myc mouse model of lymphomagenesis", "type": "in vivo", "description": "To evaluate the efficacy of PES as a chemopreventative agent, Eμ-Myc transgenic mice were injected every 5 days, starting at 8 weeks of age, with either vehicle or PES (40 mg/kg) prepared in PBS. All animals received a total of 7 injections, either with PES or vehicle. Consequently, no injection was given after day 86. All mice were observed daily for signs of morbidity and the development of lymphoma. All experiments with mice were approved by, and conformed to, the guidelines of the Institutional Animal Care and Use Committee of the Fox Chase Cancer Center. These mice may also be used to advantage to test the beneficial therapeutic combinations of agents and/or treatments described herein.\nBeginning at 6 weeks of age, Eμ-myc transgenic mice were treated either with vehicle, 20 mg/kg PES or 20 mg/kg PES-Cl with weekly i.p. injections of tested compound (FIG. 27)."}}, "note": "“Also recorded” adds a separate entry of the source.", "data": [{"smiles": "NS(=O)(=O)C#Cc1ccccc1", "note": "[PES, 2-Phenylethynesulfonamide]", "values": [{"measurement": "interaction with DnaK", "setting": "DnaK", "value": "interacts with DnaK"}, {"measurement": "cell survival, tumorogenic versus non-tumorogenic cells", "setting": "[1]", "value": "greater concentration dependent effect on cell survival in tumorogenic cells"}, {"measurement": "combination effect with cisplatin", "setting": "FADU cells", "value": "acts synergistically with cisplatin"}, {"measurement": "response of the bacteria to elevated temperatures", "setting": "E. coli", "value": "slow growth, filamentation, and reduced viability"}, {"measurement": "cell proliferation of E. coli", "setting": "E. coli; increasing concentrations, 35° C. or 43° C.", "value": "inhibited in a dose-dependent fashion"}, {"measurement": "cell viability", "setting": "[2]", "value": "minimal effect"}, {"measurement": "cell viability", "setting": "[3]", "value": "no decrease in cell viability"}, {"measurement": "cell viability", "setting": "[4]", "value": "effective at killing HI299 lung carcinoma cells; also recorded: dose-dependent loss of viability"}, {"measurement": "PES-induced cell death after silencing of HSP70", "setting": "[4]; HSP70 shRNA, 20 μM PES 24 h", "value": "rescued PES-induced cell death"}, {"measurement": "abundance of HSP70/BAG-1S complex", "setting": "HSP70", "value": "no detectable change"}, {"measurement": "abundance of HSP70/HSP90 complexes", "setting": "HSP70", "value": "no change in the abundance of HSP70/HSP90 complexes"}, {"measurement": "HSP70 in association with CHIP, HSP40 and APAF1", "setting": "HSP70; 20 μM, 24 h", "value": "less HSP70 in association with CHIP, HSP40 and APAF1"}, {"measurement": "HSP70 interaction with viral T antigen", "setting": "HSP70; 293 cells with SV40 T antigen, 20 μM", "value": "interfered with HSP70 and viral T antigen interactions"}, {"measurement": "LAMP2 in a complex with HSP70", "setting": "HSP70; A875, MiaPaCa2, 20 μM, 24 h", "value": "significantly reduced the amount of LAMP2 in a complex with HSP70"}, {"measurement": "complexes containing p53 and BAK or HSP70", "setting": "HSP70; A875 and HepG2 cells, PES 20 μM, with or without cisplatin 50 μM", "value": "not observed"}, {"measurement": "interaction between HSP70 and BAG-1M", "setting": "HSP70; H1299, U2OS", "value": "clear decrease"}, {"measurement": "HSP70 interaction with integrin α5 and integrin β1", "setting": "HSP70; H1299 cells", "value": "reduced HSP70 and integrin α5 and integin β1 interactions"}, {"measurement": "interaction between monomeric p62/SQSTM1 and HSP70", "setting": "HSP70; MiaPaCa2, A875", "value": "attenuated the interaction"}, {"measurement": "tumor development", "setting": "Eμ-Myc transgenic mice; 40 mg/kg i.p. once every five days for 30 days", "value": "markedly impaired tumor development"}, {"measurement": "overall mean survival time", "setting": "Eμ-Myc transgenic mice; 40 mg/kg intra-peritoneally every 5 days for 30 days", "value": "> 140", "unit": "days"}]}]}
